Here are results for three molecules from ChEMBL document CHEMBL1201862, “PubChem BioAssay data set” (2004).

SMILES strings stand for the structures. The source made the active and inactive calls. Some results are limits rather than exact numbers.

A short description of assay [1]: luciferase reporter signal suppression in cells – H4 neuroglioma cells, luminescence, dose response (AID 1990). Format: functional, cell-based. On the technique in general: A reporter such as luciferase makes a cellular process visible.
Assay [2] can be described thus: luciferase reporter signal reduction – luminescence, H4-C neuroglioblastoma cells, dose response (AID 2458).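 Note: H4 neuroglioblastoma cells stably carrying a luciferase reporter gene fusion.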 The format is functional, cell-based.
In assay [3] the test system is BJ. As to the kind of experiment: BJ-TERT fibroblast viability loss – cell-based, RAS-independent, luminescence, dose response (AID 1933). The format is functional. The following applies: Homo sapiens.
The next assay in a line: cells. The format is functional, cell-based.
Assay [4] can be described thus: alpha-synuclein stem-loop luciferase translation blockers – H4 neuroglioma cells, luminescence, confirmation (AID 1988). The format is functional, cell-based.
For assay [5], the system named is BJ. Put plainly: cells. The format is functional, cell-based. The settings on record: Homo sapiens.
For the next assay, the system named is J774.A1. Put plainly: Confirmation of image-based Screening Assay for Inhibitors of Phagocytosis. [Related pubchem assays (depositor defined):AID1029, AID1643]. The format is functional, cell-based. The settings on record: Mus musculus.
In assay [6] the test system is BJ. Put plainly: BJ-TERT-LT-ST fibroblast viability loss – cell-based, RAS-independent, luminescence, dose response (AID 1935).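 Note: BJ fibroblasts immortalized with TERT plus LT and ST oncogenes.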 The settings on record: Homo sapiens. The format is functional.
A short description of assay [7]: DRD fibroblast viability loss – cell-based, non-viral oncogenic, luminescence, dose response (AID 1934). The format is functional. The following applies: Homo sapiens.
Assay [8] is described as follows: alpha-synuclein stem-loop translation blockers – luminescence, H4 neuroglioblastoma cells, dose confirmation, confirmation (AID 2454).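 Note: H4 neuroglioblastoma cells carrying an alpha-synuclein 5'UTR luciferase reporter; potency for inhibition of the luciferase signal.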 The format is functional, cell-based.
The target in assay [9] is Cyclin-dependent kinase 5/CDK5 activator 1 (Homo sapiens, UniProt Q00535). As to the kind of experiment: blockade of human CDK5 activity – biochemical, cherry-picked samples, set 2, dose response (AID 504545).
Sequence of Cyclin-dependent kinase 5/CDK5 activator 1 (Q00535 whole entry): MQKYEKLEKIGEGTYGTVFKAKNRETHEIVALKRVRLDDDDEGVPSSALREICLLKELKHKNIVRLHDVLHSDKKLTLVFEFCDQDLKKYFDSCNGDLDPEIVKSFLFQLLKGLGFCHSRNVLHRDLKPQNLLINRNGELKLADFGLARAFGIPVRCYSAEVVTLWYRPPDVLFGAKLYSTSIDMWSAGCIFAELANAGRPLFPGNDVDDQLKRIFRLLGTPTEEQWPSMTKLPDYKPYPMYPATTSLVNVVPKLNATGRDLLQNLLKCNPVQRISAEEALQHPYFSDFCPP
Sequence of Cyclin-dependent kinase 5/CDK5 activator 1 (Q15078 whole entry, further chain): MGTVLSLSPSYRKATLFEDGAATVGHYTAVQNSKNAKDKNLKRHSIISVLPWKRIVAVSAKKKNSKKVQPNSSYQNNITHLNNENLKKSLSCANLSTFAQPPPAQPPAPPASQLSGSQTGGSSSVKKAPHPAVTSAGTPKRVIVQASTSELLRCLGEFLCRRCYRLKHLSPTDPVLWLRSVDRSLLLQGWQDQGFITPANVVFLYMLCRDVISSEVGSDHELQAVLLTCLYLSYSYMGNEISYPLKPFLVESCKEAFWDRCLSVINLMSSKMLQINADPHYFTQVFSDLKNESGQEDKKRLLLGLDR
Assay [10] can be described thus: mitochondrial function rescue without frataxin homolog – Friedreich's ataxia, plus single-dose screen, dose response (AID 1465).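 Note: yeast depleted of Yfh1p frataxin homolog grown on glycerol needing respiration; WST-1 tetrazolium dye reduction as measure of cellular dehydrogenase metabolic activity.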 Format: functional.
Assay [11] concerns the target FAD-linked sulfhydryl oxidase ALR (Homo sapiens, UniProt P55789). As to the kind of experiment: ALR-catalysed DTT oxidation blockers – biochemical, H2O2 detection, luminescence, cherry-pick, dose response (AID 493248).
The target of the next assay is Hexokinase HKDC1 (Homo sapiens, UniProt Q2TB90). As to the kind of experiment: inhibition of HKDC1 glucose phosphorylation – biochemical, W721R variant, dose response (AID 504729). The format is functional.
Sequence of Hexokinase HKDC1 (Q2TB90 whole entry): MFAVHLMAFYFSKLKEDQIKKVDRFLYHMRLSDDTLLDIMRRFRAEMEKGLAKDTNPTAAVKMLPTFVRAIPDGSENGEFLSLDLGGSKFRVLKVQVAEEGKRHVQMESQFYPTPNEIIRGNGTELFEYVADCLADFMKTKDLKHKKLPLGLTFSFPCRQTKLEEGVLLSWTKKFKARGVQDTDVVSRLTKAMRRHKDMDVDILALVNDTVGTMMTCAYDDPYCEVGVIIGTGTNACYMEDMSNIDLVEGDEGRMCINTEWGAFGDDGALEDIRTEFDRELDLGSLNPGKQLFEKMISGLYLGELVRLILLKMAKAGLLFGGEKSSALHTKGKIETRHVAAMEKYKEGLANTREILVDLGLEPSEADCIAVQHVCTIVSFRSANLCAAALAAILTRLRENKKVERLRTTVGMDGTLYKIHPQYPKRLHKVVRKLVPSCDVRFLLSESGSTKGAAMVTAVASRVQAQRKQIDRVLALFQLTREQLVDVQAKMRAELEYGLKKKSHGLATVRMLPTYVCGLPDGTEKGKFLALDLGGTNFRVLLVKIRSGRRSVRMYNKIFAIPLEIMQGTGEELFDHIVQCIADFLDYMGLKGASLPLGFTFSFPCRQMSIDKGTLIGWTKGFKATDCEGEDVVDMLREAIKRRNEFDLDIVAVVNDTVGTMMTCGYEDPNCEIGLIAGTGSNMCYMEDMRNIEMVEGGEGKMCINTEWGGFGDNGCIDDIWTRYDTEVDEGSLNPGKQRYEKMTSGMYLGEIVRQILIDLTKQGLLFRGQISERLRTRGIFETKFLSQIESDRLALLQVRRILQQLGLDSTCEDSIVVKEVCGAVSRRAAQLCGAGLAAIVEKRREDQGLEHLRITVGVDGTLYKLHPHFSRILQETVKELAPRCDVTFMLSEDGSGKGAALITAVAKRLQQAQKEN
Assay [12] has as its target T1, Microphthalmia-associated transcription factor (Homo sapiens, UniProt O75030).
T1 sequence (O75030 whole entry): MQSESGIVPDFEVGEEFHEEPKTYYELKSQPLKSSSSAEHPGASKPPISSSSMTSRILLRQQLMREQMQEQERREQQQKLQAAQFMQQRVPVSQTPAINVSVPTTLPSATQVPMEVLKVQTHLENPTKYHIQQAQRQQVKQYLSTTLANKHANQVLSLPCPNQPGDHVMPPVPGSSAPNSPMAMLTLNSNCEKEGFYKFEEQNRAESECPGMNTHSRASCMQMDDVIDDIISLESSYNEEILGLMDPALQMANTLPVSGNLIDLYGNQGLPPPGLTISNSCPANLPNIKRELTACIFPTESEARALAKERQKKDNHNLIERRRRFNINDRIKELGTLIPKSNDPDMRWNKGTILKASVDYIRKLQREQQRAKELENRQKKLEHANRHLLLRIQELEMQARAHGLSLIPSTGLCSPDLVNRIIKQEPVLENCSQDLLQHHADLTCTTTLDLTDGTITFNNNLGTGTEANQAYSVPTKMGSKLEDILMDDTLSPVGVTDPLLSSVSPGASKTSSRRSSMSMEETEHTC
As to the kind of experiment: reducers of TRPM1 reporter luminescence, concentration series – cell-based, SK-MEL-5, cherry-picked, set 3, MITF inhibitor project, dose response (AID 493073).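 Note: SK-MEL-5 melanoma cells with luciferase driven by the MITF target TRPM1 promoter.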 The format is functional.

Assay [13] has as its target T2, Replicative DNA helicase DnaB (Mycobacterium tuberculosis, UniProt P9WMR3).
T2 sequence (P9WMR3 whole entry): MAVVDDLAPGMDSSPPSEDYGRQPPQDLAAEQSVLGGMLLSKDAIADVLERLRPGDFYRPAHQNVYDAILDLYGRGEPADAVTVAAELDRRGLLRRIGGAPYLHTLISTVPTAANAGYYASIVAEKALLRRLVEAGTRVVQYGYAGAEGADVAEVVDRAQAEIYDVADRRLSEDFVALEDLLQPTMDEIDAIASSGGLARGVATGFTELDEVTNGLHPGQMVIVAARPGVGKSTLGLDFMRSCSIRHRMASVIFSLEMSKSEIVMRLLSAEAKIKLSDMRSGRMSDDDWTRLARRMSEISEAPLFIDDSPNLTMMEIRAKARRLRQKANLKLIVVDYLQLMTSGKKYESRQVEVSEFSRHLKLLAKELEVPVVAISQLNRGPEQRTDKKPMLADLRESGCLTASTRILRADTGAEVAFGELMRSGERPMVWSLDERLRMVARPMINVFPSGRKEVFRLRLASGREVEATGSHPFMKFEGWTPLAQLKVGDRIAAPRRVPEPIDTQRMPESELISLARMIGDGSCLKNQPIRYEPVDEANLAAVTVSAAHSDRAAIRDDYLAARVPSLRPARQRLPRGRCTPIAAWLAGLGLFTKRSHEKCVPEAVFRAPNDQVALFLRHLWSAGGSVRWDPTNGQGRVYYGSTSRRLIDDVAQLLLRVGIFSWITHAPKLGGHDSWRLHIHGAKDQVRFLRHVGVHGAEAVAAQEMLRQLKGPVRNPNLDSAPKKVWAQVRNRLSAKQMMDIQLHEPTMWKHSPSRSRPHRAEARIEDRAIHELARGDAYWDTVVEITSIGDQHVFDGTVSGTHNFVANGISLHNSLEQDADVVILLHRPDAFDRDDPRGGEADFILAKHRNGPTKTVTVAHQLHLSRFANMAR
Put plainly: DnaB intein splicing inhibitors, dose response, biochemical, cell-free fluorescence (AID 449749). The format is functional.

A further assay concerns Vero. Put plainly: viability of Vero cells under compound – cytotoxicity control for flavivirus capping enzyme inhibitors (AID 588742). Format: functional. The following applies: Chlorocebus sabaeus.
Another assay has as its target T3, Protein RecA (Mycobacterium tuberculosis, UniProt P9WHJ3).
T3 sequence (P9WHJ3 whole entry): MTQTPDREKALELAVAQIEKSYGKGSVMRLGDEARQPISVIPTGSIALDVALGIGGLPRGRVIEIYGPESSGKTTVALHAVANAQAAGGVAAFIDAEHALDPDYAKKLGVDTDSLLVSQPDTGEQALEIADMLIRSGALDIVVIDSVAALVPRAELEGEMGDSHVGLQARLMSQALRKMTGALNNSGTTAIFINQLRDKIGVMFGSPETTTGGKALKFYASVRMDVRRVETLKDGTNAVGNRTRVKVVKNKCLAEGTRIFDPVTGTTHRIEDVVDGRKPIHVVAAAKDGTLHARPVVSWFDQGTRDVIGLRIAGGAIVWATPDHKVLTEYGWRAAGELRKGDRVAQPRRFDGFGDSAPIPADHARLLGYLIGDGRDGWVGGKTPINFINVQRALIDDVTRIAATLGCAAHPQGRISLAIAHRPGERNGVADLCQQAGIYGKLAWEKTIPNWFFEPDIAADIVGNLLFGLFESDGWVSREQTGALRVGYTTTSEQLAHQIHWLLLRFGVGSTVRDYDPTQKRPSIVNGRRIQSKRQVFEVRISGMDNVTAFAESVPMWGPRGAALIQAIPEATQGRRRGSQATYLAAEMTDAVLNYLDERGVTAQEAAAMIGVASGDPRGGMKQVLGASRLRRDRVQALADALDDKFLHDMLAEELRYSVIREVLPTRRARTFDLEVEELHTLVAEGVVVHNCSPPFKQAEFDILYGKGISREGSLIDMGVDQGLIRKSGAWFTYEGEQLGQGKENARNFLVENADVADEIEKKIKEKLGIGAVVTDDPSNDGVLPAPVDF
As to the kind of experiment: Fluorescence Cell-Free Homogeneous Dose Retest to Identify Inhibitors of RecA-Intein Splicing Activity. [Related pubchem assays (depositor defined):AID2097, AID2223, AID489010, AID492950]. Format: functional.

In another assay the test system is INS1. Put plainly: INS-1E survival protection against cytokine death – cell-based, luminescence, retest, dose response (AID 449756).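 Note: cell death triggered by IL-1 beta plus TNF-alpha plus IFN-gamma mixture; protective hits raise ATP signal compared with cytokine alone wells.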 Format: functional. The following applies: Rattus norvegicus.
Another assay deals with A-375. Put plainly: proliferation inhibition in MITF-low A375 cells – cell-based, cherry-pick samples, set 2, counter-screen for MITF modulator project, dose response (AID 540335). The format is functional. The following applies: Homo sapiens.
For assay [14], the target named is T4, Polyadenylate-binding protein 1 (Homo sapiens, UniProt P11940). As to the kind of experiment: MLLE binding blockers, Cy5 peptide tracer – biochemical, fluorescence polarization, Cy5-PAM2 peptide, secondary, miRNA deadenylation inhibitor project, dose response (AID 602260). The format is functional. The following applies: read-out: IC50_Mean. On the technique in general: Fluorescence polarisation rises when a labelled molecule tumbles more slowly, as on binding a larger partner.
T4 sequence (P11940 whole entry): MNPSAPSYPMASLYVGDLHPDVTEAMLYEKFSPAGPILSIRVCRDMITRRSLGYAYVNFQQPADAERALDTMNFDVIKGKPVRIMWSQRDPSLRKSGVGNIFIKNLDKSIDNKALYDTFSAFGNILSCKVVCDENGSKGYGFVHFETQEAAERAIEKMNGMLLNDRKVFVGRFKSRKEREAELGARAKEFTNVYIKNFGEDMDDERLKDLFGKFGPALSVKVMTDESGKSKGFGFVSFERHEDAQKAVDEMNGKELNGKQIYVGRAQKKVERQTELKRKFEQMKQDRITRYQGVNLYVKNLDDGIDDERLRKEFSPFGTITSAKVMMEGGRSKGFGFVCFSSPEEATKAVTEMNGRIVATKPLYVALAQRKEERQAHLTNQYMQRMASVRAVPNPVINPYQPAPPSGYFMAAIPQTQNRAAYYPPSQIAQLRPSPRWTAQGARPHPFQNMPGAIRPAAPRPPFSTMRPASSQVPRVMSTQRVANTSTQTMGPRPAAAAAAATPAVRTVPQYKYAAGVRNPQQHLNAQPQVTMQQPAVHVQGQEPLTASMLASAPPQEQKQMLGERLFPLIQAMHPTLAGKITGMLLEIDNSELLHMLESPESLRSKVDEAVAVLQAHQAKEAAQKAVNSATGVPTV

The target of assay [15] is T4, Polyadenylate-binding protein 1. As to the kind of experiment: MLLE domain peptide-binding blockers, IC50 – biochemical, fluorescence polarization, FITC-PAM2 peptide, dose response (AID 602259). The format is functional. The settings on record: read-out: IC50_Mean.

Sequence of FAD-linked sulfhydryl oxidase ALR (P55789 whole entry): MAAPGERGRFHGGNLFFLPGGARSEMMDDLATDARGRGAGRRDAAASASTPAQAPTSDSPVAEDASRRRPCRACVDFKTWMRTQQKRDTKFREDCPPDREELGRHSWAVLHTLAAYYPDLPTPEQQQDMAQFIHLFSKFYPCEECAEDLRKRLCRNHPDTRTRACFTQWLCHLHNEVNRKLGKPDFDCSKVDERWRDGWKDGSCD

As usually defined, the EC50 is the concentration needed to bring the measured effect to its halfway point. On to `COc1ccccc1C1CC(=O)Nc2cc3c(cc21)OCCO3` (configuration not stated), for which the EC50 in [1] is 7.13 µM (inconclusive); in assay [2], 2.17 µM (active); with BJ [3], 7.46 µM (active); in “cells”, > 12 µM (not active); in assay [4], < 0.1 µM (active); with BJ [5], 19.4 µM (active). Moreover, the EC50 is 1.4 µM (inconclusive) in the assay with BJ [6], 2 µM (active) in assay [7] and > 12 µM (not active) in [8]. Moreover, the IC50 with J774.A1 is > 25 µM (inactive).
Usually AC50 stands for the midpoint of the concentration-response curve, whichever way the signal moves. Turning to `COc1ccc(C(=O)c2sc(NC(C)C)nc2N)cc1OC`, in [9], the AC50 is 90.5 µM (active).
As a reminder, the CC50 is the concentration at which the toxic effect on the cells reaches its halfway point. On to `COc1ccc(S(=O)(=O)Nc2ccc(O)c3ccccc23)cc1`, for which the EC50 in [10] is > 100 µM (active); at Protein RecA it was 0.0478 µM (active). Also, the AC50 in assay [11] was 18.4 µM (active); in assay [12] it was 9.07 µM (active); in assay [13], 0.0824 µM (active); in the assay with INS1, 4.67 µM (active); with A-375, 33.1 µM (active). The IC50 on Hexokinase HKDC1 was 21 µM (inactive); in assay [14], > 66 µM (inactive); in assay [15] it was > 66 µM (inactive). In addition, the CC50 with Vero is > 40 µM (active).
